In patent publication US9067894B1, “Compound, composition, and method of activating GIRK potassium channel and use of same for treating conditions of interest” (Vanderbilt University, priority 2013, dated 2015):
pEC50: −log10 of the molar value.

Key:
Assay type in all cases: cell-based
[1] = biological target: T1, GIRK1/4 (Homo sapiens, UniProt P48544+P48549); test: Thallium flux assay protocol (Examples 2 and 3), GIRK1/GIRK4 HEK-293 cells; details: for pEC50: triplicate determinations; for GIRK1/4 efficacy (activator): standardized to 2 (ML297) = 100%
T1 construct: expressed in transfected cells; host or cells: HEK-293
T1 sequence (P48549 1-501): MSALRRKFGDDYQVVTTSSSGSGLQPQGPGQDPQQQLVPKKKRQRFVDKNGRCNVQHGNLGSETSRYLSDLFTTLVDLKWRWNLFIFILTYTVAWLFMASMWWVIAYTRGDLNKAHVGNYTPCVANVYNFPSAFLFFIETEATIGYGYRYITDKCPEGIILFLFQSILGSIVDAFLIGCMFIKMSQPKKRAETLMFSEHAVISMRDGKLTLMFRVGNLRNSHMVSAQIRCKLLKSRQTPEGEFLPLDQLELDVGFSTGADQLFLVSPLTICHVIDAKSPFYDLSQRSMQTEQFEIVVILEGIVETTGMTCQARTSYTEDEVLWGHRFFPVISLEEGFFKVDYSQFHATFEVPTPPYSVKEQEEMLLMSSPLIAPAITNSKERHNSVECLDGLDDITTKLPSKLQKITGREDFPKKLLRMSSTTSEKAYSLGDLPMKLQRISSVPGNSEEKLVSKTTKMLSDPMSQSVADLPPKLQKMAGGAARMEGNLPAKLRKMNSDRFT
T1 sequence (P48544 1-419): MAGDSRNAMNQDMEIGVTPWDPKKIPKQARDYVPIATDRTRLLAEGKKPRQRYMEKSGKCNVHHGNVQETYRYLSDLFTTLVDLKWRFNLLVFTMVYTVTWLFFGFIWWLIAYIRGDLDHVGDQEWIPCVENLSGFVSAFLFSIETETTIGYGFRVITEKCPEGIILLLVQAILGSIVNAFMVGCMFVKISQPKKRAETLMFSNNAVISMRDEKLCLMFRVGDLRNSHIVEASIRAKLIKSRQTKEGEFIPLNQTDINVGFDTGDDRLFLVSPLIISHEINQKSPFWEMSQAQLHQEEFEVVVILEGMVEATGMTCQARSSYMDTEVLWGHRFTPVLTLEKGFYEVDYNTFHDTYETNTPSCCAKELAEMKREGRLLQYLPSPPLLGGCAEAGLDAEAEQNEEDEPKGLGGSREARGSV
Experimental: (§1) Compounds were dissolved in DMSO, transferred to 384-well polypropylene plates, and serially diluted in DMSO using and Agilent Bravo (11-points, threefold dilutions). Serially diluted plates were dispensed to daughter plates using a Labcyte Echo555 and diluted to twofold over their target assay concentration with 20 mM HEPES-buffered (pH 7.4) Hanks Balanced Salt Solution (HBSS), hereafter referred to as Assay Buffer, using a Thermo Fisher Combi. Twenty-thousand HEK-293 cells/well stably transfected with the ion channel subunits of interest (e.g., GIRK1/GIRK2, GIRK1/GIRK4) were plated into 384-well, black-walled, clear-bottom, amine-coated coated plates in 20 LL/well alpha-minimal essential medium (MEM) supplemented with 10% (v/v) fetal bovine serum and incubated overnight in a 5% CO2 incubator at 37° C. Cell culture medium was removed from cell plates and replaced with 20 LL/well Assay Buffer. Twenty microliters/well of 0.5 LM of the thallium-sensitive dye, Thallos-AM (TEFlabs, Austin Tex.) in Assay Buffer was added to cell plates. Cell plates were incubated for 60 min at room temperature and then dye-loading solution was removed from cell plates and replaced with 20 LL/well Assay Buffer. Dye loaded and washed cell plates were transferred to a Hamamatsu FDSS 6000 and a double-addition protocol was initiated. After 10s, 20 LL/well of 20 LM test compound in 0.2% DMSO and Assay Buffer was added. After 4 min 10 LL/well of a 5× sodium bicarbonate-based thallium stimulus buffer (20 mM HEPES pH 7.4, 135 mM NaHCO3, 2 mM CaSO4, 1 mM MgSO4, 5 mM glucose, 12 mM Tl2SO4) was added and 2 more minutes of data collection followed. Fluorescence data were collected at 1 Hz. Data analysis: Waveform signals (fluorescence intensity vs time normalized by dividing each fluorescence value (F) by the initial fluorescence value for each trace (F0)) were reduced to single values by subtracting the average normalized waveform from vehicle control wells from each wave on the plate followed by obtaining the slope of the change in fluorescence immediately after the addition of the thallium stimulus. Slope values were normalized as a percentage of the slope obtained by the addition of a maximally effective concentration of the GIRK activator, ML297 (e.g., an efficacy value of 100% means that the compound's maximum apparent efficacy equals that of ML297). Curve fits for normalized slope values were obtained using a four-parameter logistic equation in the Excel add-in, XLfit.

[2] = biological target: T2, GIRK1/2 (Homo sapiens, UniProt P48051+P48549); test: Thallium flux assay protocol (Examples 2 and 3), GIRK1/GIRK2 HEK-293 cells; design: expressed in transfected cells; host or cells: HEK-293; details: for pEC50: triplicate determinations; for GIRK1/2 efficacy (activator): standardized to 2 (ML297) = 100%
T2 sequence (P48549 1-501): T1 sequence (P48549 1-501)
T2 sequence (P48051 1-423): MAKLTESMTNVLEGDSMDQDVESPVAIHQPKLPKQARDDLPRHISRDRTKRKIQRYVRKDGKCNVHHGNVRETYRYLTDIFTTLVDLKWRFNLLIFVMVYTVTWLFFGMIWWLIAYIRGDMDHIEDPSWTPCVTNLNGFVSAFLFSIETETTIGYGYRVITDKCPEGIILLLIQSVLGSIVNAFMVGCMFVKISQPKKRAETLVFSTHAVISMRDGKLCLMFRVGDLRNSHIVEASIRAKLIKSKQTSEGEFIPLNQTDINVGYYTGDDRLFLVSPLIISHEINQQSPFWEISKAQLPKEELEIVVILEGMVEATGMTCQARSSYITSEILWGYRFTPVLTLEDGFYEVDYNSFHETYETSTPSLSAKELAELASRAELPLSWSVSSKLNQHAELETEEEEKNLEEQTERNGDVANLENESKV
Experimental: as §1, with “Slope values were normalized as a percentage of the slope obtained by the addition of a maximally effective concentration of the GIRK activator, ML297 (e.g., an efficacy value of 100% means that the compound's maximum apparent efficacy equals that of ML297).” left out

[3] = biological target: T2, GIRK1/2; test: Thallium flux assay, HEK-293 cells expressing GIRK1/2; design: host or cells: HEK-293; details: confirmed GIRK activator of GIRK1/2, HTS hit; read-out: EC50
Description: Cell Line Construction and Cell Culture. HEK-293 cells co-expressing human GIRK1/2 and rat mGlu8 were generated as previously described (Niswender et al., 2008). A HEK-293 cell line (ATCC, Manassas, Va.) expressing human GIRK1 and human GIRK2 was constructed by transfecting HEK-293 cells with GIRK1 and GIRK2 (Origene, Rockville, Md.) cloned into the pBudCE4.1 vector (Life Technologies, Carlsbad, Calif.) using FuGene 6 (Promega, Madison, Wis.) transfection reagent. Unless otherwise noted, other ion channel-expressing cells were prepared by transfecting HEK-293 cells with individual or combinations of subunits: GIRK1, pCMV6-A-BSD; GIRK2, pCMV6-A-puro; GIRK3, pCMV6-A-hygro; GIRK4, pCMV6-A-AC; Kv7.4, pIRESneo3. The Kir2.1 and hERG-expressing cell lines were made by transfecting T-REx-293 cells (Life Technologies, Carlsbad, Calif.) with Kir2.1 and Kv11.1, respectively, cloned into pcDNA5TO. Monoclonal cell lines were produced by limiting-dilution cloning of antibiotic-resistant cells and functional selection using the thallium flux assay described below. Unless otherwise noted, cells were maintained in Minimal Essential Medium, Alpha Medium (Mediatech, Manassas, Va.) supplemented with 10% fetal bovine serum (Sigma-Aldrich, Saint Louis, Mo.) and GlutaGro (Mediatech, Manassas, Va.), referred to henceforth as cell culture medium. […]

Row | Compound | pEC50 ([1]; Table 4, analogs 8) | GIRK1/4 efficacy (activator) [1] [%] | GIRK1/2 efficacy (activator) [2] [%] | further results
1 | O=C(Cc1ccccc1Cl)Nc1cc(Cl)cc(C(F)(F)F)c1 [8d] | < 5.00 |  |  | pEC50 ([2]; Table 4, analogs 8): < 5.00
2 | O=C(Cc1ccccc1Cl)Nc1cccc(Cl)c1 [8g] | 5.74 | 22 |  | activity at GIRK1/4 (in words) [1]: selective, partial GIRK1/4 activators
3 | O=C(Cc1ccccc1Cl)Nc1ccc(Cl)c(C(F)(F)F)c1 [8e] | 6.62 | 17 |  | activity at GIRK1/2 (in words) [2]: inactive
4 | Cc1cccc(NC(=O)Cc2ccccc2Cl)c1 [8i] |  |  |  | activity at GIRK1/4 (in words) [1]: inactive; activity at GIRK1/2 (in words) [2]: inactive
5 | COc1ccc(OC)c(NC(=O)Nc2ccc(C)c(S(=O)(=O)N(C)C)c2)c1 [6i] |  |  |  | activity at GIRK1/4 (in words) [1]: inactive; activity at GIRK1/2 (in words) [2]: inactive
6 | Cc1ccc(NC(=O)Cc2ccccc2Br)cc1S(=O)(=O)N(C)C [3a] |  | 114 | 108 | 
7 | CC(C)(C)c1cccc(NC(=O)Cc2ccccc2Cl)c1 [8b] | 5.57 |  |  | pEC50 ([2]; Table 4, analogs 8): 5.23
8 | Cc1ccc(NC(=O)Nc2ccc(C(F)(F)F)cc2)cc1S(=O)(=O)N(C)C [6h] |  |  | 26 | pEC50 ([2]; Table 3, analogs 6 (ureas)): 4.82
9 | O=C(Cc1ccccc1Cl)Nc1cccc(OC(F)F)c1 [8c] | 5.11 |  |  | 
10 | Cc1ccc(NC(=O)Cc2ccccc2Cl)cc1S(=O)(=O)N(C)C [compound 3] |  | 104 | 110 | 
11 | Cc1cc(NC(=O)Nc2ccc(F)c(F)c2)n(Cc2ccccc2)n1 [5d] |  | 99 | 87 | 
12 | Cc1cc(NC(=O)Nc2ccccc2)n(-c2ccccc2)n1 [CID736191] |  |  |  | pEC50 [3]: ~6.00
13 | Cc1ccc(NC(=O)Nc2cccc(C#N)c2)cc1S(=O)(=O)N(C)C [6j] |  |  |  | pEC50 ([1]; Table 3, analogs 6 (ureas)): 5.48
